Data published in patent US12247246B2, “Identification of inhibitors of TcpC and TIR NADase activity” (Washington University, priority 2017, dated 2025).

Legend:
[1] = target: T1, SARM1-TIR (Homo sapiens, UniProt Q6SZW1, DEL570-570/DEL657-657); assay: Substrate specificity in NADase assay, purified SARM1-TIR; type: biochemical; details: purified TIR protein, HPLC and LC-MS, 30 minutes
T1 construct: made in house
T1 sequence (Q6SZW1 with tags, fused parts or gaps DEL570-570/DEL657-657): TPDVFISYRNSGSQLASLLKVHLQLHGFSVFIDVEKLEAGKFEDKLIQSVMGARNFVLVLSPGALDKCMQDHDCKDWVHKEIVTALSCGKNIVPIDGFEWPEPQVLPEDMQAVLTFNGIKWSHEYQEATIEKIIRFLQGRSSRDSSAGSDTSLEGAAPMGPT

[2] = system: prokaryotic TIR domains (TirS-TIR, TcpC-TIR, TcpA-TIR); assay: Substrate specificity in NADase assay, purified prokaryotic TIR domains; type: biochemical; details: purified TIR proteins, HPLC and LC-MS, 30 minutes
Protocol: Supernatant (90 μL) containing the extracted metabolites was mixed with 0.5M Potassium Phosphate buffer (10 μL), and metabolites were analyzed by HPLC (Nexera X2) with Kinetex (100×3 mm, 2.6 μm; Phenomenex) column. Internal standards for NAD^+, Nicotinamide (Nam), ADP Ribose (ADPR), and cyclic ADPR were used to generate standard curves for quantification of the respective compounds. The levels for each compound in each experimental sample were normalized to the 0 min time point that was analyzed concurrently.
Neutralization was performed with 3M K2CO3.
Samples were prepared by mixing the reactions with 50% methanol in distilled water. The samples were placed on ice, centrifuged, soluble metabolites in the supernatant were extracted with chloroform, and the aqueous phase was lyophilized and stored at −20° C. until LC-MS analysis. For LC-MS, the metabolite samples were reconstituted with 5 mM ammonium formate, centrifuged 12,000×g for 10 min, and the cleared supernatant was applied to the LC-MS for metabolite identification and quantification. Liquid chromatography was performed by HPLC system (1290; Agilent) with Atlantis T3 (2.1×150 mm, 3 μm; Waters) column. Samples (10 µl) were injected at a flow rate of 0.15 ml/min with 5 mM ammonium formate for mobile phase A and 100% methanol for mobile phase B and metabolites were eluted with gradients of 2-6 min, 0-20% B; 6-8 min, 20-50% B; 8-10 min 50% B; 10-15 min, 50-0% B. The metabolites were detected with Triple Quad mass spectrometer (6460; Agilent) under positive ESI multiple reaction monitoring (MRM). Metabolites were quantified by MassHunter quantitative analysis tool (Agilent) with standard curves. Standard curves for each compound were generated by analyzing NAD^+, cADPR, ADPR, and Nam reconstituted in 5 mM ammonium formate.
In some instances, NADases are capable of cleaving a number of related molecules, such as the NAD+ precursor Nicotinamide Mononucleotide (NMN) in the case of CD38 (Sauve et al., 1998). Further, we wanted to determine whether prokaryotic TIRs could cleave additional substrates, providing additional paths to modifying cell metabolism. To examine the substrate specificity of the prokaryotic TIR domains, we tested their activity using a wide variety of metabolites and analogs.

[3] = target: TcpC TIR (Escherichia coli O6:H1, UniProt A0A0H2V8B5); assay: biochemical; type: biochemical, uropathogenic Escherichia coli; details: for inhibitor of TcpC TIR NADase activity (screen hit, NAD/ADPR ratio >2): Pharmakon library screen, 25 μM compound, 10 μM NAD, 37° C. 60 min, hits retested for dose dependent inhibition
Sequence of TcpC TIR (A0A0H2V8B5 169-303 limits assumed): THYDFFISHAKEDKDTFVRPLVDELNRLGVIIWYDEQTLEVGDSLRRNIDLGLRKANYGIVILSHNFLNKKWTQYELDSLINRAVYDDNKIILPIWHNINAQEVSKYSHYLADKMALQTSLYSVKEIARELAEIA
Protocol: (§1) NRK1-HEK293T cells were seeded onto 150 cm2 plates at 20×10^6 cells per plate. […] Forty-eight hours after transfection, cells were harvested, pelleted by centrifugation at 1,000 rpm (Sorvall ST 16R centrifuge, Thermo Fisher), and washed once with cold PBS (0.01 M phosphate buffered saline NaCl 0.138 M; KCl 0.0027 M; pH 7.4). The cells were resuspended in PBS with protease inhibitors (Complete protease inhibitor cocktail, Roche product #11873580001) and cell lysates were prepared by sonication (Branson Sonifer 450, output=3, 20 episodes of stroke). […] Protein concentration was determined by the Bicinchoninic (BCA) method and used to normalize lysate concentrations.
(§2) The reaction was incubated at 37° C. for 60 min, and then stopped by addition of 180 μl of 0.55 M perchloric acid (HClO4) and placed on ice. After 10 min on ice, the reaction plates were centrifuged for 10 min at 4,000 rpm (Sorvall ST 16R centrifuge). The supernatant (120 μl) was transferred to a new plate and 10 μl of 3M K2CO3 was added to neutralize the solution. Precipitated salts were removed by centrifugation 10 min at 4,000 rpm (Sorvall ST 16R centrifuge). […] This ratio was compared to the ratio generated in the absence of compound inhibitors.
(§3) Positive hits were individually purchased from Sigma and tested its dose dependent inhibition in conditions described above. SARM1 Sam-Tir lysate and MSSA Tir were also used to test if these compounds could block these Tir NADase activities as well.

[4] = target: TirS (Staphylococcus aureus, UniProt P0DTS9); assay: TirS NADase inhibition assay (in-vitro translated protein, NAD/ADPR by HPLC); type: biochemical; details: FIG. 11B
Sequence of TirS (P0DTS9 141-275 limits assumed): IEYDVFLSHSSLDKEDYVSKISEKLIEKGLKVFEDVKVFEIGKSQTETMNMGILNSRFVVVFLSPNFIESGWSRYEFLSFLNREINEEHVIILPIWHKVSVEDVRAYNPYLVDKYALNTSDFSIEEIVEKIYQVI
Protocol: as §2

[5] = target: T2, SARM1 (Sam-Tir) (Homo sapiens, UniProt Q6SZW1); assay: SARM1 Sam-Tir lysate NADase inhibition assay; type: biochemical; details: data not shown
T2 construct: SARM1 Sam-Tir lysate and MSSA Tir were also used; made in house; host or cells: lysate
T2 sequence (Q6SZW1 410-724 limits assumed): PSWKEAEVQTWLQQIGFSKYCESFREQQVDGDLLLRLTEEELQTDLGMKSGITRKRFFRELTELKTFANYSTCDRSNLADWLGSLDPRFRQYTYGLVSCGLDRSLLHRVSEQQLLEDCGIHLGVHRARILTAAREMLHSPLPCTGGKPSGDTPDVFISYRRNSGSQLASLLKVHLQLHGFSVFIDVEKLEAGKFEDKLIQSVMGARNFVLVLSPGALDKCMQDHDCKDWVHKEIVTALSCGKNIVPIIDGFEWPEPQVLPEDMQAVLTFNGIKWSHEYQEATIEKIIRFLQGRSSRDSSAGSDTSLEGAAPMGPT
Protocol: NAD (10 μM final concentration) was then added for a final reaction volume of 20 μl. The reaction was incubated at 37° C. for 60 min, and then stopped by addition of 180 μl of 0.55 M perchloric acid (HClO4) and placed on ice. After 10 min on ice, the reaction plates were centrifuged for 10 min at 4,000 rpm (Sorvall ST 16R centrifuge). The supernatant (120 μl) was transferred to a new plate and 10 μl of 3M K2CO3 was added to neutralize the solution. Precipitated salts were removed by centrifugation 10 min at 4,000 rpm (Sorvall ST 16R centrifuge). The supernatant was transferred and analyzed by HPLC (Shimadzu Nexera X2) to quantify the amounts of NAD and ADPR, a product of the cleavage reaction, in each sample. From these values, the NAD/ADPR ratio was calculated for each compound as a measure of NAD cleavage activity. This ratio was compared to the ratio generated in the absence of compound inhibitors.
as §3

[6] = target: T3, uropathogenic Escherichia coli TcpC TIR domain (TcpC-TIR) (Escherichia coli, UniProt A0A0H2V8B5); type: biochemical; details: primary screen 25 μM, 10 μM NAD, 37° C, 60 min (hit: NAD/ADPR ratio >2), then dose response; FIG. 10
T3 construct: cell lysate
T3 sequence (A0A0H2V8B5 170-307): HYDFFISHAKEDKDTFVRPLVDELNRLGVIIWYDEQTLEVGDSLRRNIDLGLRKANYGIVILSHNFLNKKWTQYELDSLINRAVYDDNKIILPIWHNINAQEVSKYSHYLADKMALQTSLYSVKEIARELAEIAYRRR
Protocol: as §1, §2
Positive hits were individually purchased from Sigma and tested its dose dependent inhibition in conditions described above. […]

[7] = system: SPN (Streptococcus Pyogenes NAD^+ glycohydrolase); details: reported value (Ghosh et al., 2010); cited from earlier work

Row | Compound | cleavage of substrate by SARM1-TIR [1] | cleavage of substrate by prokaryotic TIR domains [2] | also measured
1 | CC(=O)c1ccc[n+]([C@@H]2O[C@H](COP(=O)([O-])OP(=O)(O)OC[C@H]3O[C@@H](n4cnc5c(N)ncnc54)[C@H](O)[C@@H]3O)[C@@H](O)[C@H]2O)c1 [3-apAD, 3-acetylpyridine adenine dinucleotide] | substantially cleaved | substantially cleaved | 
2 | Nc1c2ccccc2nc2ccccc12 [9-aminoacridine] |  |  | inhibition of TcpC TIR NADase activity ([3]; data not shown): Neither of these drugs inhibited; inhibition of TirS NADase activity, compared among acridine compounds [4]: most potent inhibition; inhibition of SARM1 (Sam-Tir) NADase activity [5]: Neither of these drugs inhibited
3 | Nc1ncnc2c1ncn2[C@@H]1O[C@H](COP(=O)(O)OP(=O)(O)OP(=O)(O)O)[C@@H](O)[C@H]1O [ATP, Adenosine triphosphate] | unable to detect substantial cleavage | unable to detect substantial cleavage | 
4 | Cc1cc(N)c2ccccc2[n+]1CCCCCCCCCC[n+]1c(C)cc(N)c2ccccc21 [Dequalinium] |  |  | IC50 [3]: ~300 nM; inhibitor of TcpC TIR NADase activity (screen hit, NAD/ADPR ratio >2) [3]: potent inhibitor; inhibitor of TcpC TIR NADase activity (screen hit, NAD/ADPR ratio >2) ([3]; listed as dequalinium): inhibitors; inhibition of TcpC TIR NADase activity [6]: very potent inhibitor
5 | NC(=O)c1ccc[n+]([C@@H]2O[C@H](COP(=O)([O-])OP(=O)(O)OC[C@H]3O[C@@H](n4cnc5c(N)ncnc54)[C@H](O)[C@@H]3O)[C@@H](O)[C@H]2O)c1 [NAD+] |  |  | Km [7]: 188 µM
6 | NC(=O)c1ccc[n+]([C@@H]2O[C@H](COP(=O)([O-])OP(=O)(O)OC[C@H]3O[C@@H](n4cnc5c(=O)[nH]c(N)nc54)[C@H](O)[C@@H]3O)[C@@H](O)[C@H]2O)c1 [NGD, Nicotinamide Guanine Dinucleotide] | cleaved | did not cleave | 
7 | NC(=O)c1ccc[n+](C2OC(COP(=O)(O)OP(=O)(O)OCC3OC(n4cnc5c(=O)[nH]cnc54)C(O)C3O)C(O)C2O)c1 (stereo not shown) [NHD, Nicotinamide Hypoxanthine Dinucleotide] | cleaved | did not cleave | 
8 | NC(=O)c1ccc[n+]([C@@H]2O[C@H](COP(=O)([O-])O)[C@@H](O)[C@H]2O)c1 [NMN, Nicotinamide Mononucleotide] |  | little effect | 
9 | Nc1ncnc2c1ncn2[C@@H]1O[C@H](COP(=O)(O)OP(=O)(O)OC[C@H]2O[C@@H]([n+]3cccc(C(=O)O)c3)[C@H](O)[C@@H]2O)[C@@H](O)[C@H]1O [NaAD, Nicotinic Acid Adenine Dinucleotide] | none cleaved | none cleaved | 
10 | NC(N)=NC(=O)c1nc(Cl)c(N)nc1N [amiloride, 3,5-diamino-6-chloro-N-(diaminomethylidene)pyrazine-2-carboxamide] |  |  | inhibitor of TcpC TIR NADase activity (screen hit, NAD/ADPR ratio >2) [3]: inhibitors
11 | NC(=S)c1ccc[n+]([C@@H]2O[C@H](COP(=O)([O-])OP(=O)(O)OC[C@H]3O[C@@H](n4cnc5c(N)ncnc54)[C@H](O)[C@@H]3O)[C@@H](O)[C@H]2O)c1 [sNAD, thionicotinamide adenine dinucleotide] | substantially cleaved | substantially cleaved | 
12 | Guanine triphosphate [GTP] | unable to detect substantial cleavage | unable to detect substantial cleavage | 
13 | Nicotinamide Adenine Dinucleotide Phosphate [NADP^+] |  | cleave | 
